Experiments:
[1] = target: T1, Tyrosine-protein kinase BTK (Homo sapiens, UniProt Q06187); experiment: Inhibition of BTK (unknown origin) after 1 hr by TR-FRET analysis
[2] = target: T1, Tyrosine-protein kinase BTK; experiment: Inhibition of BTK in human Ramos cells after 20 mins by fluorescence assay; format: cell-based

T1 sequence (Q06187 whole entry): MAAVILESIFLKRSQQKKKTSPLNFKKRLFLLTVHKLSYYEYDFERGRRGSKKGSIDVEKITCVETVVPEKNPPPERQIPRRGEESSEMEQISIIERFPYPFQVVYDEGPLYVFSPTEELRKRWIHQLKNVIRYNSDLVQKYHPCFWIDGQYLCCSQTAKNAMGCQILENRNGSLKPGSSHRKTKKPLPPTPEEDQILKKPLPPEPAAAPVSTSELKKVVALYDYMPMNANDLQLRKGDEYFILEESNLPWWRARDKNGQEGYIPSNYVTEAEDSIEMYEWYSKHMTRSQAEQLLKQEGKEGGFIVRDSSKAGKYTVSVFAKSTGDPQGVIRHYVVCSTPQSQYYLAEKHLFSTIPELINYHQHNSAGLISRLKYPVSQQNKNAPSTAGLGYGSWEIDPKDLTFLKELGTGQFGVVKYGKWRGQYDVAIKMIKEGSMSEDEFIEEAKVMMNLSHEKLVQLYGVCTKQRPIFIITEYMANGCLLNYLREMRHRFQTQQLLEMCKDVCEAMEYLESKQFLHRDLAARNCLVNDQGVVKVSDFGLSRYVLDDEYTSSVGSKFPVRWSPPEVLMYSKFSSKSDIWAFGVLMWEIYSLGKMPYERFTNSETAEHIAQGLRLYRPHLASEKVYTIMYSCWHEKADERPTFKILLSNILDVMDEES

SMILES | IC50 [1] [nM] | IC50 [2] [nM]
O=c1c2c(F)cc(C3CC3)cc2ccn1-c1cccc(-c2ncnc3[nH]ccc23)c1CO | 1570 | > 5000
O=c1c2c(F)cc(C3CC3)cc2ccn1-c1cccc(-c2ncnc3[nH]c(-c4ccccc4)cc23)c1CO | 90.3 | 79
O=c1c2c(F)cc(C3CC3)cc2ccn1-c1cccc(-c2ncnc3[nH]c(-c4ccc(O)cc4)cc23)c1CO | 73.9 | 211
COc1ccc(-c2cc3c(-c4cccc(-n5ccc6cc(C7CC7)cc(F)c6c5=O)c4CO)ncnc3[nH]2)cc1 | 58.3 | 38.8
Nc1cccc(-c2cc3c(-c4cccc(-n5ccc6cc(C7CC7)cc(F)c6c5=O)c4CO)ncnc3[nH]2)c1 | 136 | 65
O=C(c1ccc(-c2cc3c(-c4cccc(-n5ccc6cc(C7CC7)cc(F)c6c5=O)c4CO)ncnc3[nH]2)cc1)N1CCCCC1 | 50.8 | 65
O=c1c2c(F)cc(C3CC3)cc2ccn1-c1cccc(-c2ncnc3[nH]c(-c4ccc(CN5CCOCC5)cc4)cc23)c1CO | 63.6 | 12
CN(C)C(=O)c1cccc(-c2cc3c(-c4cccc(-n5ccc6cc(C7CC7)cc(F)c6c5=O)c4CO)ncnc3[nH]2)c1 | 69 | 87.3
CC(=O)c1cc(-c2cc3c(-c4cccc(-n5ccc6cc(C7CC7)cc(F)c6c5=O)c4CO)ncnc3[nH]2)cs1 | 119 | 58
COc1ccc(-c2cc3c(-c4cccc(-n5ccc6cc(C7CC7)cc(F)c6c5=O)c4CO)ncnc3[nH]2)cn1 | 197 | 74
CN(C)C(=O)c1cc2c(-c3cccc(-n4ccc5cc(C6CC6)cc(F)c5c4=O)c3CO)ncnc2[nH]1 | 1360 | 1560
O=c1c2c(F)cc(C3CC3)cc2ccn1-c1cccc(-c2ncnc3[nH]c(C4=CCCCC4)cc23)c1CO | 77.8 | 350
O=c1c2c(F)cc(C3CC3)cc2ccn1-c1cccc(-c2ncnc3[nH]c(C4=CCSCC4)cc23)c1CO | 67.1 | 46
CN1CC=C(c2cc3c(-c4cccc(-n5ccc6cc(C7CC7)cc(F)c6c5=O)c4CO)ncnc3[nH]2)CC1 | 57.1 | 125
O=c1c2c(F)cc(C3CC3)cc2ccn1-c1cccc(-c2ncnc3[nH]c(C4=CCN(c5ncccn5)CC4)cc23)c1CO | 45.3 | 69.7
CN(C)C(=O)N1CCC(c2cc3c(-c4cccc(-n5ccc6cc(C7CC7)cc(F)c6c5=O)c4CO)ncnc3[nH]2)CC1 | 574 | 1650
CN(C)C(=O)N1CC=C(c2cc3c(-c4cccc(-n5ccc6cc(C7CC7)cc(F)c6c5=O)c4CO)ncnc3n2C)CC1 | > 5000 | > 5000

Stronger by IC50 [1], values ahead:

IC50 [1] [nM] | IC50 [2] [nM] | SMILES
15.8 | 7.9 | CS(=O)(=O)N1CC=C(c2cc3c(-c4cccc(-n5ccc6cc(C7CC7)cc(F)c6c5=O)c4CO)ncnc3[nH]2)CC1
41.7 | 49 | CC(=O)c1ccc(-c2cc3c(-c4cccc(-n5ccc6cc(C7CC7)cc(F)c6c5=O)c4CO)ncnc3[nH]2)cc1
17.8 | 15 | CN(C)C(=O)c1ccc(-c2cc3c(-c4cccc(-n5ccc6cc(C7CC7)cc(F)c6c5=O)c4CO)ncnc3[nH]2)cc1
18.2 | 10 | O=C(c1ccc(-c2cc3c(-c4cccc(-n5ccc6cc(C7CC7)cc(F)c6c5=O)c4CO)ncnc3[nH]2)cc1)N1CCOCC1
31.6 | 33 | CN(C)Cc1ccc(-c2cc3c(-c4cccc(-n5ccc6cc(C7CC7)cc(F)c6c5=O)c4CO)ncnc3[nH]2)cc1
38.8 | 47 | O=c1c2c(F)cc(C3CC3)cc2ccn1-c1cccc(-c2ncnc3[nH]c(-c4cc[nH]n4)cc23)c1CO
21.3 | 38 | Cn1ccc(-c2cc3c(-c4cccc(-n5ccc6cc(C7CC7)cc(F)c6c5=O)c4CO)ncnc3[nH]2)n1
32.5 | 96.5 | O=c1c2c(F)cc(C3CC3)cc2ccn1-c1cccc(-c2ncnc3[nH]c(C4=CCNCC4)cc23)c1CO
15.3 | 21.4 | CC(=O)N1CC=C(c2cc3c(-c4cccc(-n5ccc6cc(C7CC7)cc(F)c6c5=O)c4CO)ncnc3[nH]2)CC1
7 | 21.6 | CN(C)C(=O)N1CC=C(c2cc3c(-c4cccc(-n5ccc6cc(C7CC7)cc(F)c6c5=O)c4CO)ncnc3[nH]2)CC1
4.8 | 17 | O=C(N1CC=C(c2cc3c(-c4cccc(-n5ccc6cc(C7CC7)cc(F)c6c5=O)c4CO)ncnc3[nH]2)CC1)N1CCOCC1
25.2 | 51.3 | CNC(=O)N1CC=C(c2cc3c(-c4cccc(-n5ccc6cc(C7CC7)cc(F)c6c5=O)c4CO)ncnc3[nH]2)CC1
16.5 | 26 | CN(C)S(=O)(=O)N1CC=C(c2cc3c(-c4cccc(-n5ccc6cc(C7CC7)cc(F)c6c5=O)c4CO)ncnc3[nH]2)CC1
24.8 | 11 | O=c1c2c(F)cc(C3CC3)cc2ccn1-c1cccc(-c2ncnc3[nH]c(C4=CCN(C5COC5)CC4)cc23)c1CO

From ChEMBL document CHEMBL3399979, “Discovery of novel Bruton's tyrosine kinase (BTK) inhibitors bearing a pyrrolo[2,3-d]pyrimidine scaffold” (Bioorg Med Chem, 2015)
